Reference: patent US4209443A, “Process for separating pharmaceutically active diindole alkaloids” (priority 1976, dated 1980)
Structures can show the parent of a compound that is named as a salt.

What was measured:
[1] = tested on: L 1210/Ref (vinca-refractory) mouse lymphoid leukemia; assay: Average survival prolongation and tumor-inhibiting effect, L 1210/Ref (vinca-refractory) lymphoid leukemia, i.p.; format: in vivo, mouse (BDF1 mice); conditions: for On the limit-day (days 36 to day 40): lives / On the limit-day (days 36 to day 40): tumor-free / T/c × 100 / Average survival period, treated: 7 treatments; for Average survival period, treated: control 8.0 days
Protocol: (§1) The pharmacological tests were performed on transplantable tumors of rats and mice. The effects on L 1210/VS(vinca-sensitive) mouse lymphoid leukemia and L 1210/Ref (vinca-refractory) mouse lymphoid leukemia were tested on BDF1 mice, the effects on Ehrlich ascites carcinomatous tumors and S 37 ascites sarcomatous tumors were examined on Swiss mice, whereas the effects on Novikoff hepatoma were examined on Wistar rats.
(§2) The 4-deacetoxy-vinblastine sulfate was dissolved in physiological saline and the solution was administered intraperitoneally into the animals to be tested. In the tests the average prolongation of survival period and the tumor-inhibiting effect were examined in relation to the untreated controls. In the Table the symbol T/c represents the ratio of treated animals to the controls, and the term "number of limit-days" means the fourfold of the average survival period observed in the control group.

[2] = tested on: transplantable tumors of rats and mice; assay: Tumor-inhibiting effect on transplantable tumors of rats and mice; format: in vivo
Protocol: as §1, §2

[3] = tested on: Novikoff hepatoma; assay: Average survival prolongation and tumor-inhibiting effect, Novikoff hepatoma, i.p.; format: in vivo, rat (Wistar rats); conditions: for On the limit-day (days 36 to day 40): lives / On the limit-day (days 36 to day 40): tumor-free / T/c × 100 / Average survival period, treated: once a day, 8 treatments
Protocol: as §1, §2

[4] = Toxicity (LD50, i.p., mice); conditions: mouse, in vivo, ip
[5] = tested on: S 37 ascites sarcoma; assay: Average survival prolongation and tumor-inhibiting effect, S 37 ascites sarcoma, i.p.; format: in vivo, mouse (Swiss mice); conditions: once a day, 8 treatments; for Average survival period, treated: control 18.2 days
Protocol: as §1, §2

[6] = tested on: Ehrlich ascites carcinoma; assay: Average survival prolongation and tumor-inhibiting effect, Ehrlich ascites carcinoma, i.p.; format: in vivo, mouse (Swiss mice); conditions: 3.0 mg/kg i.p., once a day, 9 treatments
Protocol: as §1, §2

[7] = tested on: HK/Ly ascites lymphoma; assay: Average survival prolongation and tumor-inhibiting effect, HK/Ly ascites lymphoma, i.p.; format: in vivo; conditions: once a day, 8 treatments; for Average survival period, treated: control 14.4 days
Protocol: as §2

[8] = tested on: L 1210/VS (vinca-sensitive) mouse lymphoid leukemia; assay: Average survival prolongation and tumor-inhibiting effect, L 1210/VS (vinca-sensitive) lymphoid leukemia, i.p.; format: in vivo, mouse (BDF1 mice)
Protocol: as §1, §2

[9] = tested on: mice; assay: Toxicity (LD50, i.p., mice)
[10] = Neurotoxicity accompanied with paralytic symptoms; format: in vivo; conditions: during administration
[11] = tested on: tumors resistant towards the cytostatic agents known before; conditions: Hungarian Patent specification No. 165,986; cited from earlier work
[12] = in vivo; conditions: mouse, ip
[13] = known vinca alkaloids; cited from earlier work
[14] = 4.0 mg/kg i.p., once in every two days
[15] = 0.9 mg/kg i.p., once a day, 7 treatments
[16] = 1.8 mg/kg i.p., once a day, 7 treatments
[17] = 2.0 mg/kg i.p., once a day, 16 treatments
[18] = 4.0 mg/kg i.p., once a day, 16 treatments
[19] = 4.0 mg/kg i.p., once in every two days, 8 treatments
[20] = 4.0 mg/kg i.p., once in every two days, 11 treatments
[21] = 5.0 mg/kg i.p., once in every two days, 8 treatments
[22] = 6.0 mg/kg i.p., once in every two days, 8 treatments

CC[C@]1(O)C[C@@H]2CN(CCc3c([nH]c4ccccc34)[C@@](C(=O)OC)(c3cc4c(cc3OC)N(C)[C@@H]3[C@]45CCN4CC=C[C@@](CC)(C[C@]3(O)C(=O)OC)[C@H]45)C2)C1 [4-Deacetoxy-vinblastine, 4-deacetoxy-vinblastine]
sensitivity of L 1210/Ref leukemia ([1]; mouse, in vivo): not sensitive | inhibiting effect on all the other transplanted tumors ([2]; all transplanted tumors other than L 1210/Ref): significant dosage-dependent inhibiting effect | inhibiting effect on Novikoff hepatoma ([3]; relative to the other transplanted tumors): most intensive | LD50 [4]: > 23 mg/kg

CC[C@]1(O)C[C@@H]2CN(CCc3c([nH]c4ccccc34)[C@@](C(=O)OC)(c3cc4c(cc3OC)N(C)[C@@H]3[C@]45CCN4CC=C[C@@](CC)(C[C@]3(O)C(=O)OC)[C@H]45)C2)C1 [4-deacetoxy-vinblastine sulfate, 4-Deacetoxy-vinblastine sulfate]
On the limit-day (days 36 to day 40): lives ([1]; 2.0 mg/kg i.p., once a day): 0/6 | On the limit-day (days 36 to day 40): tumor-free ([1]; 2.0 mg/kg i.p., once a day): 0/6 | T/c × 100 ([1]; 2.0 mg/kg i.p., once a day): 119 | Average survival period, treated ([1]; 2.0 mg/kg i.p., once a day): 9.5 days | On the limit-day (days 36 to day 40): lives ([1]; 4.0 mg/kg i.p., once a day): 0/6 | On the limit-day (days 36 to day 40): tumor-free ([1]; 4.0 mg/kg i.p., once a day): 0/6 | T/c × 100 ([1]; 4.0 mg/kg i.p., once a day): 144 | Average survival period, treated ([1]; 4.0 mg/kg i.p., once a day): 11.5 days | On the limit-day (days 36 to day 40): lives [1, 14]: 0/6 | On the limit-day (days 36 to day 40): tumor-free [1, 14]: 0/6 | T/c × 100 [1, 14]: 146 | Average survival period, treated [1, 14]: 11.7 days | On the limit-day (days 36 to day 40): lives ([5]; 1.8 mg/kg i.p.): 6/8 | On the limit-day (days 36 to day 40): tumor-free ([5]; 1.8 mg/kg i.p.): 6/8 | T/c × 100 ([5]; 1.8 mg/kg i.p.): 376 | Average survival period, treated ([5]; 1.8 mg/kg i.p.): 68.5 days | On the limit-day (days 36 to day 40): lives ([5]; 2.7 mg/kg i.p.): 7/10 | On the limit-day (days 36 to day 40): tumor-free ([5]; 2.7 mg/kg i.p.): 7/10 | T/c × 100 ([5]; 2.7 mg/kg i.p.): 373 | Average survival period, treated ([5]; 2.7 mg/kg i.p.): 67.9 days | On the limit-day (days 36 to day 40): lives [6]: 10/10 | On the limit-day (days 36 to day 40): tumor-free [6]: 6/10 | T/c × 100 [6]: 174 | Average survival period, treated ([6]; control 17.4 days): 30 days | On the limit-day (days 36 to day 40): lives ([7]; 2.0 mg/kg i.p.): 0/10 | On the limit-day (days 36 to day 40): tumor-free ([7]; 2.0 mg/kg i.p.): 0/10 | T/c × 100 ([7]; 2.0 mg/kg i.p.): 334 | Average survival period, treated ([7]; 2.0 mg/kg i.p.): 48.1 days | On the limit-day (days 36 to day 40): lives ([7]; 4.0 mg/kg i.p.): 6/10 | On the limit-day (days 36 to day 40): tumor-free ([7]; 4.0 mg/kg i.p.): 0/10 | T/c × 100 ([7]; 4.0 mg/kg i.p.): 382 | Average survival period, treated ([7]; 4.0 mg/kg i.p.): 55.0 days | On the limit-day (days 36 to day 40): lives ([7]; 6.0 mg/kg i.p.): 0/10 | On the limit-day (days 36 to day 40): tumor-free ([7]; 6.0 mg/kg i.p.): 0/10 | T/c × 100 ([7]; 6.0 mg/kg i.p.): 328 | Average survival period, treated ([7]; 6.0 mg/kg i.p.): 47.2 days | tumor-inhibiting effects compared with vinblastine ([2]; compared with vinblastine): roughly identical with those of vinblastine | On the limit-day (days 36 to day 40): lives [8, 15]: 0/6 | On the limit-day (days 36 to day 40): tumor-free [8, 15]: 0/6 | T/c × 100 [8, 15]: 128 | Average survival period, treated ([8]; 0.9 mg/kg i.p., once a day, 7 treatments, control 8.8 days): 11.5 days | On the limit-day (days 36 to day 40): lives [8, 16]: 0/6 | On the limit-day (days 36 to day 40): tumor-free [8, 16]: 0/6 | T/c × 100 [8, 16]: 128 | Average survival period, treated ([8]; 1.8 mg/kg i.p., once a day, 7 treatments, control 8.8 days): 11.3 days | On the limit-day (days 36 to day 40): lives [8, 17]: 0/6 | On the limit-day (days 36 to day 40): tumor-free [8, 17]: 0/6 | T/c × 100 [8, 17]: 238 | Average survival period, treated ([8]; 2.0 mg/kg i.p., once a day, 16 treatments, control 10.3 days): 24.5 days | On the limit-day (days 36 to day 40): lives [8, 18]: 0/6 | On the limit-day (days 36 to day 40): tumor-free [8, 18]: 0/6 | T/c × 100 [8, 18]: 269 | Average survival period, treated ([8]; 4.0 mg/kg i.p., once a day, 16 treatments, control 10.3 days): 27.7 days | On the limit-day (days 36 to day 40): lives [8, 19]: 0/6 | On the limit-day (days 36 to day 40): tumor-free [8, 19]: 0/6 | T/c × 100 [8, 19]: 213 | Average survival period, treated ([8]; 4.0 mg/kg i.p., once in every two days, 8 treatments, control 8.3 days): 17.7 days | On the limit-day (days 36 to day 40): lives [8, 20]: 0/6 | On the limit-day (days 36 to day 40): tumor-free [8, 20]: 0/6 | T/c × 100 [8, 20]: 267 | Average survival period, treated ([8]; 4.0 mg/kg i.p., once in every two days, 11 treatments, control 10.3 days): 27.5 days | On the limit-day (days 36 to day 40): lives [8, 21]: 0/6 | On the limit-day (days 36 to day 40): tumor-free [8, 21]: 0/6 | T/c × 100 [8, 21]: 251 | Average survival period, treated ([8]; 5.0 mg/kg i.p., once in every two days, 8 treatments, control 8.3 days): 20.8 days | On the limit-day (days 36 to day 40): lives [8, 22]: 0/6 | On the limit-day (days 36 to day 40): tumor-free [8, 22]: 0/6 | T/c × 100 [8, 22]: 291 | Average survival period, treated ([8]; 6.0 mg/kg i.p., once in every two days, 8 treatments, control 8.3 days): 24.2 days | On the limit-day (days 36 to day 40): lives ([3]; 0.5 mg/kg i.p.): 0/6 | On the limit-day (days 36 to day 40): tumor-free ([3]; 0.5 mg/kg i.p.): 0/6 | T/c × 100 ([3]; 0.5 mg/kg i.p.): 126 | Average survival period, treated ([3]; 0.5 mg/kg i.p., control 8.2 days): 10.3 days | On the limit-day (days 36 to day 40): lives ([3]; 1.0 mg/kg i.p.): 1/6 | On the limit-day (days 36 to day 40): tumor-free ([3]; 1.0 mg/kg i.p.): 1/6 | T/c × 100 ([3]; 1.0 mg/kg i.p.): 338 | Average survival period, treated ([3]; 1.0 mg/kg i.p., control 8.2 days): 27.7 days | On the limit-day (days 36 to day 40): lives ([3]; 1.5 mg/kg i.p.): 2/6 | On the limit-day (days 36 to day 40): tumor-free ([3]; 1.5 mg/kg i.p.): 0/6 | T/c × 100 ([3]; 1.5 mg/kg i.p.): 317 | Average survival period, treated ([3]; 1.5 mg/kg i.p., control 7.8 days): 24.7 days | toxicity compared with vinblastine ([9]; compared with vinblastine): far less toxic than vinblastine | Neurotoxicity accompanied with paralytic symptoms [10]: does not appear at all

CC[C@]12CN3CCc4c([nH]c5ccccc45)[C@@](C(=O)OC)(c4cc5c(cc4OC)N(C=O)[C@H]4[C@@](O)(C(=O)OC)[C@H](OC(C)=O)[C@]6(CC)C=CCN7CC[C@]54[C@@H]76)C[C@@H](C3)[C@H]1O2 [N-Formyl-leurosine, reference compound]
growth inhibition of tumors resistant towards the cytostatic agents known before [11]: inhibits the growth of tumors resistant towards the cytostatic agents known before | LD50 ([9]; i.p., mice): 29.0 mg/kg

CC[C@]1(O)C[C@@H]2CN(CCc3c([nH]c4ccccc34)[C@@](C(=O)OC)(c3cc4c(cc3OC)N(C)[C@H]3[C@@](O)(C(=O)OC)[C@H](OC(C)=O)[C@]5(CC)C=CCN6CC[C@]43[C@@H]65)C2)C1 [Vinblastine, vinblastine]
LD50 [12]: 7.5 mg/kg | Neurotoxicity accompanied with paralytic symptoms (known side-effect) [13]: characteristic adverse side-effect

CC[C@]1(O)C[C@H]2CN(CCc3c([nH]c4ccccc34)[C@@](C(=O)OC)(c3cc4c(cc3OC)N(C=O)[C@H]3[C@@](O)(C(=O)OC)[C@H](OC(C)=O)[C@]5(CC)C=CCN6CC[C@]43[C@@H]65)C2)C1 [Vincristine, vincristine, reference compound]
LD50 [4]: 4.2 mg/kg | Neurotoxicity accompanied with paralytic symptoms (known side-effect) [13]: characteristic adverse side-effect
